30 compounds from ChEMBL document CHEMBL5143585, “Discovery and characterization of benzyloxy piperidine based dopamine 4 receptor antagonists” (Bioorg Med Chem Lett, 2022) can be followed below.

One data set addresses D(1B) dopamine receptor (Homo sapiens, UniProt P21918). Description: Displacement of [3H]-SCH23390 from human D5 receptor expressed in HEK293 cell membrane at 10 uM by competitive inhibition based analysis. The format is cell membranes. For orientation: In a radioligand displacement assay an active substance lowers the binding of a labelled ligand.
The nature of data set [1]: Protein binding in mouse plasma assessed as unbound fraction. The format is ADME, cell-free.
In a further data set the target is T1, D(4) dopamine receptor (Homo sapiens, UniProt P21917).
T1 sequence (P21917 whole entry): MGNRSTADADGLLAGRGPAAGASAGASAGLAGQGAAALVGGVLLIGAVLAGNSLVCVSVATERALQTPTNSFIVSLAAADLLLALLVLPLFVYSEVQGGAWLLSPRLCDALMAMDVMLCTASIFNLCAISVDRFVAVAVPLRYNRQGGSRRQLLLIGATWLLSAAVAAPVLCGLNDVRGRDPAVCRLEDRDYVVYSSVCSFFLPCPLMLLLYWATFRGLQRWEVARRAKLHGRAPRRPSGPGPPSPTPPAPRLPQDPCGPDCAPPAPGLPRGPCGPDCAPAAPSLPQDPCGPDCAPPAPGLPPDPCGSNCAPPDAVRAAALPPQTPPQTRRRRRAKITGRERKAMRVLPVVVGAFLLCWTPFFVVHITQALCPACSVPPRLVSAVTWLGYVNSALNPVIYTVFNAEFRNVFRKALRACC
Description: Displacement of [3H]N-methylspiperone from human D4 receptor expressed in HEK293 cell membrane by competitive inhibition based analysis. The format is cell membranes.

A further data set concerns the target D(1A) dopamine receptor (Homo sapiens, UniProt P21728). Description: Displacement of [3H]-SCH23390 from human D1 receptor expressed in HEK293 cell membrane at 10 uM by competitive inhibition based analysis. In kind it is cell membranes.
Data set [2] has as its target D(2) dopamine receptor (Homo sapiens) (UniProt P14416). Description: Displacement of [3H]N-methylspiperone from human D2 receptor expressed in HEK293 cell membrane at 10 uM by competitive inhibition based analysis. In kind it is cell membranes.
Data set [3] is described as follows: Protein binding in human plasma assessed as unbound fraction. The format is ADME, cell-free.
For a further data set, the target named is D(3) dopamine receptor (Homo sapiens, UniProt P35462). Description: Displacement of [3H]N-methylspiperone from human D3 receptor expressed in HEK293 cell membrane at 10 uM by competitive inhibition based analysis. In kind it is cell membranes.
Sequence of D(3) dopamine receptor (P35462 whole entry): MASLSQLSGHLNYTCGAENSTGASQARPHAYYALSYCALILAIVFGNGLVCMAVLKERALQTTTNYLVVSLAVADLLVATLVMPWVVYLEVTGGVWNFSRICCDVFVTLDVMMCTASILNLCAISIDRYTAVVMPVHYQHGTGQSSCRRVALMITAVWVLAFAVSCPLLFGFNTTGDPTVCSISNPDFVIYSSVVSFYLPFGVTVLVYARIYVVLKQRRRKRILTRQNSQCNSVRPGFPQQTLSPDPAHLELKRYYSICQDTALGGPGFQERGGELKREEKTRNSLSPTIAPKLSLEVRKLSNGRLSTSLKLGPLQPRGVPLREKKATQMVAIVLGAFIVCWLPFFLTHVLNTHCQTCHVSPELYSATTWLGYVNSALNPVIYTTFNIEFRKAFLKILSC

Sequence of D(1A) dopamine receptor (P21728 whole entry): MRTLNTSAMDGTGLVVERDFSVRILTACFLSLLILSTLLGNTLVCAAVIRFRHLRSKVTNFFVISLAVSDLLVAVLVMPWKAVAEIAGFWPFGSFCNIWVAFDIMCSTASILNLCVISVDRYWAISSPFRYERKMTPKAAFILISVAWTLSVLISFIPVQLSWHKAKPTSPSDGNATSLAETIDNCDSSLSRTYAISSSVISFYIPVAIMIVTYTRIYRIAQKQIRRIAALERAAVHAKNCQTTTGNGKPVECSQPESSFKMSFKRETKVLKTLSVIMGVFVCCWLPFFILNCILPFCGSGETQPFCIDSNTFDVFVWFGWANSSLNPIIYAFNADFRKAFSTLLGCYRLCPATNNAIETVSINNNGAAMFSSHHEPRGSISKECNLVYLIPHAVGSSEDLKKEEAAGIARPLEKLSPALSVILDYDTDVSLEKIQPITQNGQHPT
Sequence of D(1B) dopamine receptor (P21918 whole entry): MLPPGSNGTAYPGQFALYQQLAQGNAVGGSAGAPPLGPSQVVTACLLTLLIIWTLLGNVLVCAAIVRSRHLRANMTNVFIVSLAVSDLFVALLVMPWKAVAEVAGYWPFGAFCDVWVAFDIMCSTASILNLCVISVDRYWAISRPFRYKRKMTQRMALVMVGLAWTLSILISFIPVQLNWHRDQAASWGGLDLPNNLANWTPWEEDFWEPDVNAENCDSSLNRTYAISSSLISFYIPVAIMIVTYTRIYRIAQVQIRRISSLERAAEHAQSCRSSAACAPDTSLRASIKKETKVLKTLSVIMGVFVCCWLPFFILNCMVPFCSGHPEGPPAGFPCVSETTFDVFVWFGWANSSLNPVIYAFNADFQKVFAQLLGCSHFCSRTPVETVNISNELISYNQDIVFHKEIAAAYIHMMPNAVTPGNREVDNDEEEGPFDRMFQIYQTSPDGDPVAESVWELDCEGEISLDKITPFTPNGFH
Sequence of D(2) dopamine receptor (Homo sapiens) (P14416 whole entry): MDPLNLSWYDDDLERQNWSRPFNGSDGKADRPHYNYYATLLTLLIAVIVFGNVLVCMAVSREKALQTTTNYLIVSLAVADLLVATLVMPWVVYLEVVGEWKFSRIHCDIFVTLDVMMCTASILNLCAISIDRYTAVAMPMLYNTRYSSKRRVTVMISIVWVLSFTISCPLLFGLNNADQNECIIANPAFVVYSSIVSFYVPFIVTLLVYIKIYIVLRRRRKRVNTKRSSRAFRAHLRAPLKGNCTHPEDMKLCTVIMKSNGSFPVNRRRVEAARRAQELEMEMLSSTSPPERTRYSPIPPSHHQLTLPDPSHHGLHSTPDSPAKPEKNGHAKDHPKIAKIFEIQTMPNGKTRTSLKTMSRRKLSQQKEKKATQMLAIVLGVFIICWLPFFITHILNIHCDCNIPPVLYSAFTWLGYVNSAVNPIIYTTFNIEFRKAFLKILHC

As a reminder, the inhibition is how much of the control response was suppressed. Usually IC50 stands for the concentration that gives 50% inhibition. A lower IC50 goes with greater potency. In general, Ki refers to the dissociation constant of the complex between target and ligand, obtained from inhibition or displacement. A higher Ki goes with lower affinity. In the case of `FC(F)(F)c1cccc(COC2CCN(Cc3cn4ccccc4n3)CC2)c1`, the inhibition (on D(1B) dopamine receptor; on D(1A) dopamine receptor; in data set [2]; at D(3) dopamine receptor) was below 50% in each case. For the same compound, the Fu in data set [1] turned out to be 17.1%; in data set [3] it was 1.8%. Further, at D(4) dopamine receptor, the IC50 is 166 nM. At D(4) dopamine receptor, this compound displayed a Ki of 166 nM.

As for `Cc1nc(CN2CCC(OCc3ccc(F)c(F)c3)CC2)c2ccccn12`, the inhibition (at D(1B) dopamine receptor; on D(1A) dopamine receptor; in data set [2]; at D(3) dopamine receptor) was below 50% in each case. The compound further showed an IC50 at D(4) dopamine receptor of 479 nM. The same compound came in with an inhibitory constant (Ki) on D(4) dopamine receptor of 478 nM.

`COc1ccc(CN2CCC[C@H](OCc3ccc(F)c(F)c3)C2)cc1F`: the inhibition (on D(1B) dopamine receptor; at D(1A) dopamine receptor; in data set [2]; on D(3) dopamine receptor) was below 50% each time. Moreover, the results for the Fu in data set [1] and in data set [3] were 2.6% and 1.1%, respectively. The compound also had an IC50 at D(4) dopamine receptor of 170 nM. Further, the affinity at D(4) dopamine receptor corresponds to a Ki of 169 nM.

For the compound `Cc1ccc(CO[C@H]2CCCN(Cc3ccc(C#N)cc3)C2)cc1`, the inhibition (on D(1B) dopamine receptor; on D(1A) dopamine receptor; in data set [2]; on D(3) dopamine receptor) was below 50% in each case. The IC50 on D(4) dopamine receptor was 1020 nM. Besides, at D(4) dopamine receptor, the Ki stood at 1010 nM.

With `Fc1cc(COC2CCN(Cc3ncc4ccccn34)CC2)ccc1Cl`, the inhibition (at D(1B) dopamine receptor; on D(1A) dopamine receptor; in data set [2]; on D(3) dopamine receptor) was below 50% throughout. Also, the values for the Fu in data set [1] and in data set [3] were 1.7% and 1%, respectively. The compound further showed an IC50 on D(4) dopamine receptor of 158 nM. Besides, the Ki on D(4) dopamine receptor is 158 nM.

For `Cc1nc(CN2CCC(OCc3ccc(Cl)c(F)c3)CC2)c2ccccn12`, the inhibition (on D(1B) dopamine receptor; at D(1A) dopamine receptor; in data set [2]; on D(3) dopamine receptor) was below 50% throughout. Moreover, the Fu in data set [1] is 13.2%; in data set [3], 7.1%. At D(4) dopamine receptor, the IC50 was 95.5 nM. The compound further displayed a Ki at D(4) dopamine receptor of 95.5 nM.

`Cc1ccc(CO[C@H]2CCCN(Cc3ccc(Cl)c(Cl)c3)C2)cc1`: the inhibition (at D(1B) dopamine receptor; at D(1A) dopamine receptor; in data set [2]; at D(3) dopamine receptor) was below 50% in each case. This compound showed an IC50 on D(4) dopamine receptor of 1380 nM. Moreover, affinity at D(4) dopamine receptor was put at a Ki of 1390 nM.

Take `Fc1ccc(CO[C@H]2CCCN(Cc3ncn4ccccc34)C2)cc1F`: the inhibition (on D(1B) dopamine receptor; on D(1A) dopamine receptor; in data set [2]; on D(3) dopamine receptor) was below 50% throughout. Also, the figures for the Fu in data set [1] and in data set [3] were 18.1% and 3.9%, respectively. In addition, the IC50 on D(4) dopamine receptor was 447 nM. Besides, the affinity at D(4) dopamine receptor corresponds to a Ki of 447 nM.

For the compound `FC(F)(F)c1cccc(COC2CCN(Cc3ccc4[nH]ncc4c3)CC2)c1`, at D(4) dopamine receptor, the IC50 was 851 nM and the Ki stood at 860 nM.

`Fc1cc(COC2CCN(Cc3ccc4[nH]ncc4c3)CC2)ccc1Cl`: at D(4) dopamine receptor, the IC50 is 575 nM and the affinity, expressed as Ki, was 580 nM.

For the compound `Fc1cccc(CO[C@H]2CCCN(Cc3cn4ccccc4n3)C2)c1`, the inhibition (at D(1B) dopamine receptor; on D(1A) dopamine receptor; in data set [2]; at D(3) dopamine receptor) was below 50% throughout. In addition, on D(4) dopamine receptor, the IC50 was 1950 nM. In addition, the Ki on D(4) dopamine receptor was 1940 nM.

In the case of `Fc1cccc(COC2CCN(Cc3cn4ccccc4n3)CC2)c1`, the inhibition (at D(1B) dopamine receptor; on D(1A) dopamine receptor; in data set [2]; on D(3) dopamine receptor) was below 50% throughout. Further, the Fu worked out at 35.5% in data set [1] and 7% in data set [3]. Further, the IC50 on D(4) dopamine receptor was 166 nM. The compound further registered a Ki on D(4) dopamine receptor of 167 nM.

For `Fc1cccc(CO[C@H]2CCCN(Cc3ncn4ccccc34)C2)c1`, the inhibition (at D(1B) dopamine receptor; on D(1A) dopamine receptor; in data set [2]; at D(3) dopamine receptor) was below 50% each time. In addition, on D(4) dopamine receptor, the IC50 was 1350 nM. Moreover, the Ki at D(4) dopamine receptor came out at 1340 nM.

Regarding `Cc1ccc(CN2CCC[C@H](OCc3ccc(F)c(C)c3)C2)cc1`, the inhibition (at D(1B) dopamine receptor; on D(1A) dopamine receptor; in data set [2]; at D(3) dopamine receptor) was below 50% in each case. Besides, the concentration for half-maximal inhibition (IC50) at D(4) dopamine receptor is 166 nM. The affinity at D(4) dopamine receptor corresponds to a Ki of 165 nM.

As for `Cc1cc(CO[C@H]2CCCN(Cc3ncn4ccccc34)C2)ccc1F`, the inhibition (at D(1B) dopamine receptor; at D(1A) dopamine receptor; in data set [2]; on D(3) dopamine receptor) was below 50% each time. The compound further showed an IC50 at D(4) dopamine receptor of 162 nM. This compound gave a Ki on D(4) dopamine receptor of 166 nM.

`Fc1ccc(COC2CCN(Cc3ncc4ccccn34)CC2)cc1F`: the inhibition (at D(1B) dopamine receptor; on D(1A) dopamine receptor; in data set [2]; on D(3) dopamine receptor) was below 50% in each case. The compound further showed an IC50 on D(4) dopamine receptor of 214 nM. The compound also displayed a Ki at D(4) dopamine receptor of 215 nM.

As to `FC(F)(F)Oc1cccc(CO[C@H]2CCCN(Cc3cn4ccccc4n3)C2)c1`, the inhibition (at D(1B) dopamine receptor; on D(1A) dopamine receptor; in data set [2]; on D(3) dopamine receptor) was below 50% throughout. The compound also showed a 50% inhibitory concentration (IC50) on D(4) dopamine receptor of 646 nM. Further, on D(4) dopamine receptor, affinity was put at a Ki of 646 nM.

On to `Cn1ncc2cc(CN3CCC(OCc4ccc(Cl)c(F)c4)CC3)ccc21`, for which the inhibition (at D(1B) dopamine receptor; on D(1A) dopamine receptor; in data set [2]; on D(3) dopamine receptor) was below 50% each time. In addition, the Fu in data set [1] came to 5.2%; in data set [3] it was 0.9%. At D(4) dopamine receptor, this compound showed an IC50 of 170 nM. On D(4) dopamine receptor, this compound had a Ki of 170 nM.

At D(4) dopamine receptor, `Cn1cnc2cc(CN3CCC(OCc4ccc(F)c(F)c4)CC3)ccc21` gave an IC50 of 1410 nM and a Ki of 1400 nM.

At D(4) dopamine receptor, `Fc1ccc(COC2CCN(Cc3ccc4[nH]ncc4c3)CC2)cc1F` had an IC50 of 1740 nM and a Ki of 1730 nM.

With `COc1ccc(CN2CCC[C@H](OCc3ccc(F)c(C)c3)C2)cc1F`, the inhibition (at D(1B) dopamine receptor; on D(1A) dopamine receptor; in data set [2]; on D(3) dopamine receptor) was below 50% in each case. Also, the IC50 on D(4) dopamine receptor was 135 nM. Besides, the Ki on D(4) dopamine receptor is 135 nM.

Take `COc1ccc(CN2CCC[C@H](OCc3ccccc3C)C2)cc1F`: the inhibition (at D(1B) dopamine receptor; on D(1A) dopamine receptor; in data set [2]; on D(3) dopamine receptor) was below 50% throughout. The compound also gave an IC50 at D(4) dopamine receptor of 347 nM. Moreover, the Ki on D(4) dopamine receptor stood at 343 nM.

With `COc1ccc(CN2CCC[C@H](OCc3cccc(C)n3)C2)cc1F`, the inhibition (at D(1B) dopamine receptor; on D(1A) dopamine receptor; in data set [2]; at D(3) dopamine receptor) was below 50% throughout. Further, at D(4) dopamine receptor, the IC50 was 1050 nM. The compound also came in with a Ki at D(4) dopamine receptor of 1040 nM.

`COc1ccc(CN2CCC[C@@H](OCc3ccc(F)c(C)c3)C2)cc1F`: on D(4) dopamine receptor, the IC50 is 2000 nM and the Ki is 1980 nM.

As to `Cc1ccccc1CO[C@H]1CCCN(Cc2cn3ccccc3n2)C1`, the inhibition (on D(1B) dopamine receptor; on D(1A) dopamine receptor; in data set [2]; on D(3) dopamine receptor) was below 50% in each case. At D(4) dopamine receptor, the half-inhibitory concentration (IC50) is 1820 nM. This compound also displayed an inhibition constant (Ki) at D(4) dopamine receptor of 1830 nM.

Take `COc1ccc(CN2CCC[C@H](OCc3ccc(C)cc3)C2)cc1F`: the inhibition (on D(1B) dopamine receptor; on D(1A) dopamine receptor; in data set [2]; at D(3) dopamine receptor) was below 50% throughout. This compound showed an IC50 at D(4) dopamine receptor of 240 nM. The compound also yielded an inhibition constant Ki on D(4) dopamine receptor of 241 nM.

On to `FC(F)(F)c1cccc(COC2CCN(Cc3ncc4ccccn34)CC2)c1`, for which the inhibition (at D(1B) dopamine receptor; at D(1A) dopamine receptor; in data set [2]; on D(3) dopamine receptor) was below 50% each time. Besides, the 50% inhibitory concentration (IC50) on D(4) dopamine receptor was 209 nM. The compound further came in with a Ki at D(4) dopamine receptor of 208 nM.

In the case of `COc1ccc(CN2CCC[C@H](OCc3cccc(F)c3)C2)cc1F`, the inhibition (on D(1B) dopamine receptor; on D(1A) dopamine receptor; in data set [2]; at D(3) dopamine receptor) was below 50% in each case. At D(4) dopamine receptor, the IC50 was 204 nM. The Ki at D(4) dopamine receptor was 206 nM.

`Cc1cccc(CO[C@H]2CCCN(Cc3cc4ccc(Cl)cc4[nH]3)C2)n1`: the inhibition (at D(1B) dopamine receptor; on D(1A) dopamine receptor; in data set [2]; on D(3) dopamine receptor) was below 50% throughout. Also, the IC50 at D(4) dopamine receptor was 316 nM. Moreover, the affinity on D(4) dopamine receptor, expressed as Ki, was 319 nM.

On to `Cc1cc(CO[C@H]2CCCN(Cc3cn4ccccc4n3)C2)ccc1F`, for which the inhibition (on D(1B) dopamine receptor; on D(1A) dopamine receptor; in data set [2]; on D(3) dopamine receptor) was below 50% each time. At D(4) dopamine receptor, this compound had an IC50 of 186 nM. At D(4) dopamine receptor, this compound had a Ki of 187 nM.
